From PubChem BioAssay (NCI)
Several values for one entry are separate records, joined by “and”; a condition that tells them apart may be missing. Equal values may be shown once.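 In this assay, cells in 96-well plates receive the compound at five concentrations for 48 hours. Endpoints are linearly interpolated between the surrounding concentrations. GI50 = concentration required for 50% inhibition of growth. Definition used: TGI = concentration required for complete inhibition of growth.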

Columns and labels:
Experiment in all cases: NCI anticancer screen, dose series, 48 h
OVCAR-4 ovarian = test system: OVCAR-4 ovarian
K-562 leukemia = test system: K-562 leukemia
HOP-92 NSCLC = test system: HOP-92 NSCLC
SK-OV-3 ovarian = test system: SK-OV-3 ovarian
OVCAR-3 ovarian = test system: OVCAR-3 ovarian
A498 renal = test system: A498 renal
A549 NSCLC = test system: A549 NSCLC
MDA-MB-435 = test system: MDA-MB-435
MCF7 breast = test system: MCF7 breast
NCI/ADR-RES ovarian = test system: NCI/ADR-RES ovarian

Row | Compound | GI50 (OVCAR-4 ovarian) | TGI (OVCAR-4 ovarian) | TGI (K-562 leukemia) | TGI (HOP-92 NSCLC) | TGI (SK-OV-3 ovarian) | GI50 (OVCAR-3 ovarian) | TGI (OVCAR-3 ovarian) | TGI (A498 renal) | GI50 (A549 NSCLC) | TGI (A549 NSCLC) | TGI (MDA-MB-435) | GI50 (K-562 leukemia) | GI50 (HOP-92 NSCLC) | GI50 (SK-OV-3 ovarian) | GI50 (MCF7 breast) | TGI (MCF7 breast) | GI50 (NCI/ADR-RES ovarian) | TGI (NCI/ADR-RES ovarian) | GI50 (MDA-MB-435) | GI50 (A498 renal)
1 | O=C1c2nc3n(c2C(=O)c2c1nc1n2CCC1)CCC3 | 5.45 µM | 14.9 µM | > 57.8 µM | 26.3 µM | 92.2 µM | 3.42 µM | 9.74 µM and 7.87 µM | 29.6 µM | 5.11 µM | 18.1 µM | 3.48 µM |  |  |  |  |  |  |  |  | 
2 | O=C(NO)c1ccc(O)c(O)c1 |  | > 100 µM | 93.8 µM | > 100 µM | > 100 µM |  | > 100 µM | > 100 µM |  | > 100 µM |  |  |  |  |  |  |  |  |  | 
3 | CO[C@H]1CC(c2ccc[nH]2)=N[C@]12O[C@@H](C)C[C@@H]1CCCCCCCc3ccc([nH]3)[C@H]12 | 0.508 µM | 22.2 µM | > 24.2 µM | 4.81 µM | 18.9 µM | 0.942 µM | 5.62 µM |  | 1.04 µM | 7.31 µM | 4.29 µM | 0.821 µM | 0.8 µM | 4.41 µM | 0.968 µM | > 16.7 µM | 1.1 µM | 9.9 µM | 1.1 µM | 
4 | O=S(=O)(C/C(=N\O)c1ccccc1)c1ccccc1 |  | > 100 µM | > 100 µM | > 100 µM | > 100 µM |  | > 100 µM | > 100 µM |  | > 100 µM |  |  |  |  |  |  |  |  |  | 
5 | O=[N+]([O-])c1ccc(Cl)cc1C1SCc2nc3ccccc3n21 (stereo not drawn) |  | > 100 µM | > 100 µM |  | > 100 µM |  | > 100 µM | 54 µM |  | > 100 µM |  |  |  |  |  |  |  |  |  | 
6 | CC(C)c1cc(OCC(O)CO)cc(C(C)C)c1 (stereo not drawn) |  | > 100 µM | > 100 µM | > 100 µM | > 100 µM |  | > 100 µM | > 100 µM |  | > 100 µM |  |  |  |  |  |  |  |  |  | 
7 | Nc1n[nH]c(CCc2nc(N)n[nH]2)n1 |  | > 100 µM | > 100 µM | > 100 µM | > 100 µM |  | > 100 µM | > 100 µM |  | > 100 µM |  |  |  |  |  |  |  |  |  | 
8 | O=C(Nc1ccc(Cl)c(Cl)c1)OCCN1c2ccccc2Sc2ccccc21 |  | > 10 µM | > 10 µM | > 10 µM | > 10 µM |  | > 10 µM |  |  | > 10 µM | > 10 µM |  |  |  |  | > 10 µM |  | > 10 µM |  | 
9 | O=C(CC1C(=O)Nc2ccccc2S1=O)Nc1ccc(Cl)cc1 (stereo not drawn) |  | > 100 µM | > 100 µM | 83.4 µM | 63.9 µM |  | > 100 µM |  |  | > 100 µM |  |  |  |  |  |  |  |  |  | 
10 | COc1cc2c3c(n(CCCN=[N+]=[N-])c(=O)c2cc1OC)-c1ccc(N(C)C)cc1C3=O | > 100 µM | > 100 µM | > 100 µM | > 100 µM | > 100 µM | > 100 µM | > 100 µM |  | > 100 µM | > 100 µM | > 100 µM | > 100 µM | > 100 µM | > 100 µM | > 100 µM | > 100 µM | > 100 µM | > 100 µM | > 100 µM | 
11 | O=C(/C=C1/Nc2ccc([N+](=O)[O-])cc2NC1O)c1cccc([N+](=O)[O-])c1 (stereo not drawn) |  | 11.1 µM | > 100 µM | > 100 µM | 57.2 µM |  | > 100 µM | > 100 µM |  | > 100 µM |  |  |  |  |  |  |  |  |  | 
12 | CC1(C)OC(=O)C=C([O-])O1.CC1(C)OC(=O)C=C([O-])O1.CC[O-].CC[O-].[Ti+4] | > 100 µM | > 100 µM | > 100 µM |  | > 100 µM | > 100 µM | > 100 µM |  | > 100 µM | > 100 µM |  | > 100 µM |  | > 100 µM |  |  |  |  |  | 
13 | CN(C)C(=S)/N=c1\ss/c(=N\S(=O)(=O)c2ccccc2)n1N(C)C |  | > 100 µM | > 100 µM |  | > 100 µM |  | > 100 µM | > 100 µM |  | > 100 µM |  |  |  |  |  |  |  |  |  | 
14 | COC(=O)CCC(=O)NC1C2CC3CC(C2)CC1C3 (stereo not drawn) |  | > 100 µM | > 100 µM | > 100 µM | > 100 µM |  | > 100 µM | > 100 µM |  | > 100 µM |  |  |  |  |  |  |  |  |  | 
15 | O=C(O)CCSC(=O)Nc1ccc(N=Nc2ccccc2)cc1 |  | > 100 µM | > 100 µM | > 100 µM | > 100 µM |  | > 100 µM | > 100 µM |  | > 100 µM |  |  |  |  |  |  |  |  |  | 
16 | O=C1OC(CN2CCOCC2)CN1/N=C/c1ccc([N+](=O)[O-])o1 (stereo not drawn) |  | > 100 µM | > 100 µM | > 100 µM | > 100 µM |  | 67.4 µM |  |  | > 100 µM | 33.3 µM |  |  |  |  | > 100 µM |  | > 100 µM |  | 
17 | CCC(=O)N/N=C(\C=C\c1cccc(O)c1)c1sc(Nc2ccc(C)cc2[N+](=O)[O-])nc1C |  | > 100 µM | > 100 µM | 27.5 µM | > 100 µM |  | > 100 µM | > 100 µM |  | > 100 µM |  |  |  |  |  |  |  |  |  | 
18 | O=C(O)C1=C(C(=O)Nc2ccc(NC(=O)C3=C(C(=O)O)C4C=CC3C4)cc2)C2C=CC1C2 |  | > 100 µM | > 100 µM | > 100 µM | > 100 µM |  | > 100 µM | > 100 µM |  | > 100 µM |  |  |  |  |  |  |  |  |  | 
19 | c1ccc(CNc2nc(Nc3ccccc3)nc3ccccc23)cc1 | 2.05 µM | 8.04 µM |  | 3.05 µM | 9.51 µM | 1.77 µM | 3.53 µM | 5.7 µM | 1.84 µM | 5.35 µM | 3.67 µM |  | 1.45 µM | 3.26 µM |  |  | 1.99 µM | 5 µM | 1.72 µM | 1.29 µM
20 | CC12Oc3ccc4ccccc4c3CC1Cc1c(ccc3ccccc13)O2 (stereo not drawn) |  | 90.6 µM |  | 11 µM |  |  |  |  |  | > 100 µM |  |  |  |  |  |  |  |  |  | 
21 | Cc1cc(OCc2nnc3n2N=C(c2ccc(Cl)cc2Cl)CS3)ccc1Cl | 59.6 µM | > 100 µM | > 100 µM | > 100 µM | > 100 µM | 35.9 µM | > 100 µM |  | 56.3 µM | > 100 µM | > 100 µM | 54.7 µM | > 100 µM | > 100 µM | 39.1 µM | > 100 µM | 51.8 µM | > 100 µM | 26.5 µM | 
22 | COC1=C2CC(C)CC(OC)C(O)C(C)/C=C(\C)C(OC(N)=O)C(OC)/C=C\C=C(/C)C(=O)NC(=C(/C=N/N3CCCCC3)C1=O)C2=O (stereo not drawn) |  | 19.3 µM | 21.6 µM | 35.4 µM | 55.7 µM |  | 4.62 µM | 63.8 µM |  | 46.7 µM |  |  |  |  |  |  |  |  |  | 
23 | O=C1NC(=O)C2C1N(Cc1ccccc1)C(=O)N2Cc1ccccc1 (stereo not drawn) |  | > 100 µM | > 100 µM | > 100 µM | > 100 µM |  | > 100 µM | > 100 µM |  | > 100 µM |  |  |  |  |  |  |  |  |  | 
24 | c1ccc2c(c1)C1=NCCN1c1ccccc1-2 |  | 10.2 µM |  | 21.7 µM | 29.9 µM |  | 6.82 µM | 8.82 µM |  | 27.1 µM |  |  |  |  |  |  |  |  |  | 
